Laboratory results: PubChem BioAssay (NCI)
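Tested at 5 concentrations; 48 h exposure; 96-well plates; endpoints linearly interpolated, else capped at highest concentration. The concentration for 50% growth inhibition is given as GI50. TGI: concentration producing complete growth inhibition.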

Experiments:
Assay in all cases: NCI-60 cell line screen, 48 h
[1] = system: COLO 205 colon
[2] = system: NCI-H522 lung
[3] = system: U251 CNS
[4] = system: LOX IMVI melanoma
[5] = system: UACC-62 melanoma
[6] = system: HOP-92 NSCLC
[7] = system: DU-145 prostate
[8] = system: SK-OV-3 ovarian
[9] = system: BT-549 breast
[10] = system: T-47D breast

Row | SMILES | GI50 [1] | TGI [1] | GI50 [2] | TGI [2] | GI50 [3] | TGI [3] | GI50 [4] | TGI [4] | GI50 [5] | TGI [5] | GI50 [6] | TGI [6] | GI50 [7] | TGI [7] | GI50 [8] | TGI [8] | GI50 [9] | TGI [9] | GI50 [10] | TGI [10]
1 | C1COCCN1.C1COCCN1.N.N.[Cl-].[Pt+2] | > 100 µM | > 100 µM | > 100 µM | > 100 µM | > 100 µM | > 100 µM | > 100 µM | > 100 µM | > 100 µM | > 100 µM | – | – | – | – | – | – | – | – | – | –
2 | CN1CCN(Cc2ccc(C(=O)Nc3cncc(C#Cc4cnc(N)c5ccccc45)c3)cc2C(F)(F)F)CC1 | 3.69 µM | 13.3 µM | 1.95 µM | 4.26 µM | 1.78 µM | 3.33 µM | 1.75 µM | 3.17 µM | 5.22 µM | 17.5 µM | 2.42 µM | 11.3 µM | 1.78 µM | 3.49 µM | 10.8 µM | 22.9 µM | 12.7 µM | 25.4 µM | 11.6 µM | 32.2 µM
3 | CC(=O)OC1=C2CC3(C)OC(=O)CC(C)(C)C3=CC=C2C=C(C(C)C)C1=O (configuration not stated) | – | 2.05 µM | – | 0.41 µM | – | 2.99 µM | – | 0.425 µM | – | 0.725 µM | – | 0.499 µM | – | – | – | 3.54 µM | – | – | – | –
4 | O=c1[nH]c2ccccc2cc1C(Cl)=C(Cl)Cl | – | > 100 µM | – | > 100 µM | – | > 100 µM | – | > 100 µM | – | > 100 µM | – | > 100 µM | – | – | – | > 100 µM | – | – | – | –
5 | CCCCCCCCCCCCCCCC(=O)NCC(COP(=O)([O-])OCC[N+](C)(C)C)OCC (configuration not stated) | – | 5.1 µM | – | – | – | 14.4 µM | – | 34.4 µM | – | 22.3 µM | – | 15.6 µM | – | – | – | 42.6 µM | – | – | – | –
6 | CC(C)(C)c1cc(O)c(O)c(C(C)(C)C)c1 | 3.61 µM | 12.2 µM | 1.77 µM | 3.29 µM | 4.35 µM | 16.1 µM | 3.05 µM | 12.9 µM | 2.54 µM | 7.78 µM | 1.36 µM | 4.6 µM | 4.6 µM | 15.8 µM | 10.3 µM | 22.6 µM | 8.71 µM | 21 µM | 2.36 µM | 5.02 µM
7 | CN(C)/C(=N/C(=S)Nc1ccccc1)SCc1ccccc1 | – | > 100 µM | – | > 100 µM | – | > 100 µM | – | > 100 µM | – | > 100 µM | – | – | – | – | – | > 100 µM | – | – | – | –
8 | COc1cc2c3c(cccc3c1)C(=O)N(CCN1CCCC1)C2=O | 1.48 µM | 3.28 µM | 2.3 µM | 5.78 µM | 2.75 µM | 9.59 µM | 1.68 µM | 4.42 µM | 1.79 µM | 3.71 µM | 1.55 µM | 4.98 µM | 2.13 µM | 5.97 µM | 3.27 µM | 14.5 µM | 2.95 µM | 8.33 µM | 2.5 µM | 8.76 µM
9 | COc1ccc(-c2nn(-c3cccc(Cl)c3)cc2C2CC(c3ccccc3)=NN2C(C)=O)cc1 (configuration not stated) | > 100 µM | > 100 µM | 32.6 µM | > 100 µM | 3.15 µM | 14.9 µM | 11 µM | > 100 µM | 15.3 µM | > 100 µM | – | – | 5.25 µM | > 100 µM | 6.85 µM | 43.2 µM | 3.23 µM | 19.7 µM | 8.53 µM | > 100 µM
10 | C=C1C(O)C2CCC(C)(C)C(=O)C2=C(CC(C)C)C12CC2 (configuration not stated) | 22.7 µM | 53.6 µM | 36.6 µM | > 100 µM | 43.4 µM | > 100 µM | 68.5 µM | > 100 µM | 90.8 µM | > 100 µM | 15 µM | 70.3 µM | 84.9 µM | > 100 µM | > 100 µM | > 100 µM | > 100 µM | > 100 µM | – | –
11 | CSc1nc(SC)c2c(CN=[N+]=[N-])c(Br)n(Cc3ccccc3)c2n1 | – | > 100 µM | – | > 100 µM | – | > 100 µM | – | > 100 µM | – | > 100 µM | – | 83.8 µM | – | > 100 µM | – | > 100 µM | – | > 100 µM | – | > 100 µM
12 | Cc1nn(-c2ccc(S(=O)(=O)[O-])cc2)c([O-])c1N=[N+](C)c1ccc(-c2ccc(N=Nc3ccc4c(S(=O)(=O)[O-])cc(S(=O)(=O)[O-])c(N)c4c3[O-])c([O-])c2)cc1[O-].[Cu+2].[Cu+2].[Na+] | > 100 µM | > 100 µM | > 100 µM | > 100 µM | > 100 µM | > 100 µM | – | – | > 100 µM | > 100 µM | > 100 µM | > 100 µM | > 100 µM | > 100 µM | > 100 µM | > 100 µM | > 100 µM | > 100 µM | > 100 µM | > 100 µM
13 | CCOC(=O)CC1=Nc2ccccc2SC1 | – | > 100 µM | – | > 100 µM | – | > 100 µM | – | > 100 µM | – | > 100 µM | – | > 100 µM | – | – | – | – | – | – | – | –
14 | N#CC1(c2nc3ccccc3o2)C(=O)C(=O)N(C2C3CC4CC(C3)CC2C4)C(=O)C1=O (configuration not stated) | – | > 100 µM | – | > 100 µM | – | > 100 µM | – | > 100 µM | – | > 100 µM | – | > 100 µM | – | – | – | > 100 µM | – | – | – | –
15 | COc1ccc(/C=C/C=C(/C#N)C(N)=S)cc1 | 20.9 µM | 50.7 µM | 26.1 µM | 58.3 µM | 28.5 µM | > 100 µM | 16 µM | 37.4 µM | 19.3 µM | 37.9 µM | – | – | 32.7 µM | > 100 µM | 96.1 µM | > 100 µM | 30.1 µM | > 100 µM | 18.8 µM | 76.9 µM
16 | O=C(Nc1cccc(-n2ccc3c(NC(=O)c4ccccc4)nccc32)c1)c1cccc(C(F)(F)F)c1 | – | – | 0.0199 µM | 0.0759 µM | 0.0402 µM | 6.16 µM | 0.0838 µM | 2.78 µM | 0.0386 µM | 6.91 µM | 0.281 µM | 8.07 µM | 0.0363 µM | 0.168 µM | 0.0331 µM | 15.1 µM | 0.127 µM | 1.3 µM | – | –
